Assay results as given in patent US20240002351A1, “QUINAZOLIN-4-ONE AND THIENO[2,3-D]PYRIMIDIN-4-ONE INHIBITORS OF ERBB4 (HER4) FOR USE IN THE TREATMENT OF CANCER” (UNIVERSITEIT ANTWERPEN, priority 2021, published 2024).

Assays:
ERBB4 [1] = target: T1, ERBB4 (Homo sapiens, UniProt Q15303); experiment: PathHunter ERBB4/ERBB4 dimerization assay, dose-response curves; type: cell-based; conditions: U2OS ERBB4/ERBB4 dimerization cell line, 6 hours, compound alone; for Emax: NRG-1 = 100
T1 construct: host or cells: U2OS
T1 sequence (Q15303 26-1308): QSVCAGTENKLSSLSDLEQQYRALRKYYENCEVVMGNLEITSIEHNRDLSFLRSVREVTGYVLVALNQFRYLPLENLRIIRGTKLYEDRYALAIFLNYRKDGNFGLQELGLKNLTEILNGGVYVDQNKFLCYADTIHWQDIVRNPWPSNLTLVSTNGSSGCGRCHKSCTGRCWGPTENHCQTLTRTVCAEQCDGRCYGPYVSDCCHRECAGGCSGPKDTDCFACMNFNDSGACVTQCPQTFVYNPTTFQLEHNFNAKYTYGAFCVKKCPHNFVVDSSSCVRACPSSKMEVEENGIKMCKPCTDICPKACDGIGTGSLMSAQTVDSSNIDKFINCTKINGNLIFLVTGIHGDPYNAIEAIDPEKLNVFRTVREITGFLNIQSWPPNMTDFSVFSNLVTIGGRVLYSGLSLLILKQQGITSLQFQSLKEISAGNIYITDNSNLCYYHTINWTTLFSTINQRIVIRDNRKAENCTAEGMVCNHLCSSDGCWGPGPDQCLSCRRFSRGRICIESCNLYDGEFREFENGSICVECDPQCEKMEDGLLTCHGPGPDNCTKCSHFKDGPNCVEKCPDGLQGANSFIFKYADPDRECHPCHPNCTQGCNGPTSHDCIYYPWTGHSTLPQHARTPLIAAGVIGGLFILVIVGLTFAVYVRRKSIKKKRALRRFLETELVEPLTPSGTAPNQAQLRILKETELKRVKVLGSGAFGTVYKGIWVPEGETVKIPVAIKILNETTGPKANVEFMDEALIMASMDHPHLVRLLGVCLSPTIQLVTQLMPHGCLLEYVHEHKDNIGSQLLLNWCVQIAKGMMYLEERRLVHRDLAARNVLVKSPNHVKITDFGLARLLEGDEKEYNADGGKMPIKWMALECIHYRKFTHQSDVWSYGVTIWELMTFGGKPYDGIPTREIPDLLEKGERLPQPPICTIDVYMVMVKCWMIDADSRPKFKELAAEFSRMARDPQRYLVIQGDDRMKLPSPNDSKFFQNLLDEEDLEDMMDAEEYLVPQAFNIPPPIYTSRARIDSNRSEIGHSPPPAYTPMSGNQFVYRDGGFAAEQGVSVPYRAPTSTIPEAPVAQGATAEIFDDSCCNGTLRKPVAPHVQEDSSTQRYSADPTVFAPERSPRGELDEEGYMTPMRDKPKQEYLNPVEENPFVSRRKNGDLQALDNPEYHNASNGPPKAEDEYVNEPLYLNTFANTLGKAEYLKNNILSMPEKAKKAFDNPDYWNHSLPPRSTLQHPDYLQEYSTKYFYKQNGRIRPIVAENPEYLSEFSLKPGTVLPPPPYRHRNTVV
Method: (§1) Following 1-12 passages, U2OS ERBB4/ERBB4 dimerization cell line (Eurofins, 93-0961C3) were seeded at 10,000 cells/well in 100 μL cell plating reagent (Eurofins, 93-0563R0A) in white walled 96-well plates (PerkinElmer, 6005680) and incubated for 24h at 37° C. in humidified atmosphere of 5% CO2 in air. Cells were treated with 10 μL of compound (prepared at 11×, Enamine), 10 μM Heregulin-β1 (NRG-1) (DiscoverX, 92-1031 or Peprotech, 100-03) or PBS. […] Cells were subsequently incubated for 6 hours at 37° C., 5% CO2. Then 110 μL PathHunter Flash Detection Reagents (93-0247) were added to each well and cells were incubated at room temperature for 1 hour (covered from light). Afterwards luminescence signal was measured using the Luminoskan Ascent (Thermofisher). Dose response curves of the compounds were performed in 2-fold (0,0625 μM-32 μM).
From these curves, the EC50 and the Emax of the compounds was calculated.

ERBB4 [2] = target: T1, ERBB4; experiment: PathHunter ERBB4/ERBB4 dimerization assay, compounds on top of 0.1 μM NRG-1 (identification of modulators); type: cell-based; conditions: for Emax: on top of 0.1 μM NRG1, relative to NRG1 (set as 100%); for behaviour from the shape of the dose-response curves: on top of 0.1 μM neuregulin-1 (FIG. 1); for EC50: on top of 0.1 μM NRG1
Method: as §1
Cells were treated with compound (prepared at 22×, 10 min pre-incubation) together with NRG-1 (0.1 μM final concentration, Peprotech, 100-03), or NRG-1 (0.1 μM final concentration) or PBS.
The EC50 and the Emax of the compounds on top of 0.1 μM NRG1 is depicted in Table 3 relative to NRG1 (set as 100%).

EFO-21 cells = experiment: AK (adenylate kinase) toxicity assay; type: cell-based; conditions: 32 μM, 24 hours, EFO-21 cells (FIG. 3)
Method: EFO-21 cells were seeded at 10,000 cells/well in 100 μL cell medium in white walled 96-well plates (PerkinElmer, 6005680) and incubated overnight at 37° C. in humidified atmosphere of 5% CO2 in air. Next, cells were put on serum starved (SS) medium (0,1% FBS) overnight. Overnight cell cultures were then stimulated with PBS, compound (32 μM, Enamine) and/or NRG-1 (0.1 μM, Peprotech, 100-03) for 24 hours at 37° C. in humidified atmosphere of 5% CO2 in air. […] Next, 100 μL Toxilight AK detection reagent was added to each well and incubated at room temperature for 5 minutes. Luminescence was measured using the Luminoskan Ascent (Thermofisher).

[3] = test system: Human atrial cardiac fibroblasts (HCF); experiment: In vitro fibrosis assay, TGFβ-stimulated HCF (qRT-PCR); type: cell-based; conditions: TGFβ 10 ng/mL, 24 hours (FIG. 9)
Method: Human dermal fibroblasts (HDF, Cell applications, 106-05A) were cultured in Dulbecco's modified Eagle's medium (DMEM, ThermoFisher Scientific, 11995065) supplemented with 10% (v/v) heat-inactivated fetal bovine serum (FBS, ThermoFisher Scientific, 10082147), 1% penicillin/streptomycin and 1 mL polymyxin B and were maintained at 37° C. in humidified atmosphere of 5% CO2 in air. Human atrial cardiac fibroblasts (HCF, Innoprot, P10454) were cultured in fibroblast medium (Innoprot, P60108) supplemented with fetal bovine serum, fibroblast growth supplement and penicillin/streptomycin and were maintained at 37° C. in humidified atmosphere of 5% CO2 in air.
Following 1-9 passages, HDF and HCF were seeded at 0.3×10^6 cells/well in 1 mL cell medium in 12-well plates and incubated overnight at 37° C. in humidified atmosphere of 5% CO2 in air. Next, cells were put on serum starved medium (0.1% FBS) for 8 hours and then stimulated for 24 hours with either PBS, active compound (4-32 μM) or non-active compound (NA1, NA2; 4-32 μM) on top of TGFβ (10 ng/mL, Peprotech, 100-21). […] Next, cells were lysed using 100 μL lysis buffer RA1 (of RNA isolation kit below) supplemented with β-mercapto-ethanol (100:1), scraped with a cell scraper and transferred to centrifuge tubes to be stored at −20° C. for a maximum of 2 weeks before RNA isolation.
RNA was extracted using Nucleospin RNA XS (Machery Nagel) according to the manufacturer's instructions. For cDNA synthesis, total RNA was added to a solution containing buffer with random hexamers and reverse transcriptase enzyme. The PCR was performed using the following parameters: 10 minutes at 25° C., 30 minutes at 48° C., 5 minutes at 95° C. RT-qPCR on the cDNA samples was performed using Taqman Universal PCR Master Mix (Applied Biosystems) and Taqman primers according to the manufacturer's instructions. […] Expression levels were calculated using the comparative cycle method and expressed as fold change to appropriate (background) control. […]

[4] = Solubility in PBS (absorbance); type: physicochemical; conditions: aqueous buffer, kinetic from dmso stock, 37° C., 2 hours (FIG. 10), read-out: solubility: concentration at which easily soluble
Method: A dilution series (0.16, 0.31, 0.62, 1.25, 2.5 and 5 mM) was made starting with a compound stock solution of 10 mM in DMSO. Aliquot of 4 μL was taken out of every dilution and added to 196 μL PBS in a 96-well plate. The plate was shaken for 10 seconds, incubated at 37° C. for 2 hours and thereafter absorbance was measured. Samples were analyzed in duplicate.

Chemical stability = type: physicochemical; conditions: 37° C. and pH 7.4 for 24 hours (FIG. 11)
Method: A 10 μL aliquot of compound solution (10 mM in DMSO) was added to 990 μL DMSO (100 μM) and further diluted with […] to a stock solution of 500 nM. The mixture was incubated at 37° C. Aliquots of 100 μL were taken at various time points (0, 0.5, 1, 2, 3, 6 and 24 hrs) and analyzed with LC-MS/MS (Waters Acquity H-class UPLC system with ion trap mass spectrometer, Bruker Daltonics Esquire 3000 plus, and Agilent 1100 Series LC system). Samples were analyzed in triplicate and plotted against a standard curve; compound at 31-500 nM in buffer solution of pH 7.4 (10 mM Potassium Phosphate, BD Gentest).

[5] = Plasma stability, human plasma; type: in vitro ADME; conditions: 50 μM, 37° C., over 6 hours (FIG. 12)
Method: (§2) A 5 μL aliquot of compound solution (10 mM in DMSO) was added to 995 μL of Non Swiss Albino Mouse Plasma (DivBioScience, Breda, Netherlands) or Pooled Normal Human plasma in sodium citrate to obtain a final concentration of 50 μM compound in plasma. The mixture was gently shaken for 6 hours at 37° C. Aliquots of 100 μL were taken at various time points (0, 0.5, 1, 2 and 6 hrs.) and diluted with 400 μL of cold acetonitrile (Sigma-Aldrich, stored at 4° C.). The suspension was centrifuged at 14000 rpm for 5 min. Thereafter, 50 μL of the supernatant was diluted with 950 μL of acetonitrile and analyzed with LC-MS/MS (Waters Acquity H-class UPLC system with ion trap mass spectrometer, Bruker Daltonics Esquire 3000 plus, and Agilent 1100 Series LC system). Samples were analyzed in triplicate and plotted against a standard curve (compound at 3.12-100 μM in plasma and diluted in acetonitrile as described above).

[6] = Plasma stability, mouse plasma; type: in vitro ADME; conditions: 50 μM, 37° C., over 6 hours (FIG. 12)
Method: as §2

[7] = Metabolic stability, human liver microsomes; type: in vitro ADME
Method: (§3) A mixture of 713 μL milliQ water (Millipore, MA, USA), 200 μL 0.5 M phosphate buffer (pH 7.4, BD Diagnostic Systems, MD, USA), 50 μL NADPH regenerating system solution A (BD Biosciences, CA, USA), 10 μL NADPH regenerating system solution B (BD Biosciences, CA, USA) and 2 μL compound (5 mM in DMSO) was prepared and heated for 5 min at 37° C. Twenty-five μL of liver microsomes (0.5 mg protein/mL, Corning B.V. Life Sciences, Amsterdam, Netherlands) was added to the mixture and 20 μL samples were withdrawn at 0, 0.25, 0.5 and 1, 2, 4, 6 and 24 hours. Eighty μL (4×20 μL) of cold acetonitrile (Sigma-Aldrich, MO, USA) was added to the samples on ice for 10 min. Afterwards, the mixtures were centrifuged at 13,000 rpm for 5 min at 4° C. Seventy-five μL of an acetonitrile/water (10/90) mixture was added to 25 μL supernatant and the obtained samples were analyzed by LC-MS/MS (Waters Acquity H-class UPLC system with ion trap mass spectrometer, Bruker Daltonics Esquire 3000 plus, and Agilent 1100 Series LC system) in triplicate.

[8] = Metabolic stability, mouse liver microsomes; type: in vitro ADME
Method: as §3

EC50 (ERBB4 [1]) [µM]	Emax (ERBB4 [1]) [%]	Emax (ERBB4 [2]) [%]	behaviour from the shape of the dose-response curves (ERBB4 [2])	EC50 (ERBB4 [2]) [µM]	solubility at 2 h [4] [µM]	chemical stability (Chemical stability)	plasma stability, human plasma [5]	plasma stability, mouse plasma [6]	t1/2 human ([7]; human liver microsomes) [min]	half-life at 10 µM ([7]; human, liver microsomes, pH 7.4, human liver microsomes, read-out: t1/2 human) [min]	t1/2 mouse ([8]; mouse liver microsomes) [min]	half-life at 10 µM ([8]; mouse, liver microsomes, pH 7.4, mouse liver microsomes, read-out: t1/2 mouse) [min]	SMILES	toxicity (AK release) (EFO-21 cells)	col1a1 levels in comparison with TGFβ control [3]
10.9	9.48 ± 2.13	126 ± 36	weak or silent allosteric modulators	–	–	–	–	–	–	–	–	–	CC(=O)c1ccc(NC(=O)C(C)Sc2nc3ccccc3c(=O)n2C2CCCC2)cc1 (stereo not drawn) [Compound 2]	–	–
7.54	16.9 ± 3.69	192 ± 34	ago-allosteric modulators	~21.5	< 25	chemically stable	stable	stable	18	17 to 18	12	8 to 12	CC(C)n1c(SC(C(=O)NC2CC2)c2ccccc2)nc2sc3c(c2c1=O)CCC3 (stereo not drawn) [Compound 4]	–	–
20.4	18.4 ± 3.47	174 ± 38	ago-allosteric modulators	–	–	–	–	–	–	–	–	–	Cc1sc2cc(SCC(=O)NC(C)(C#N)C(C)C)n(C3CCCC3)c(=O)c2c1C (stereo not drawn) [Compound 8]	–	–

SMILES	EC50 (ERBB4 [1]) [µM]	Emax (ERBB4 [1]) [%]	Emax (ERBB4 [2]) [%]	behaviour from the shape of the dose-response curves (ERBB4 [2])	EC50 (ERBB4 [2]) [µM]	solubility at 2 h [4] [µM]	chemical stability (Chemical stability)	plasma stability, human plasma [5]	plasma stability, mouse plasma [6]	t1/2 human ([7]; human liver microsomes) [min]	half-life at 10 µM ([7]; human, liver microsomes, pH 7.4, human liver microsomes, read-out: t1/2 human) [min]	t1/2 mouse ([8]; mouse liver microsomes) [min]	half-life at 10 µM ([8]; mouse, liver microsomes, pH 7.4, mouse liver microsomes, read-out: t1/2 mouse) [min]	toxicity (AK release) (EFO-21 cells)	col1a1 levels in comparison with TGFβ control [3]
CC(Sc1nc2ccccc2c(=O)n1C1CCCC1)C(=O)N(C)c1ccccc1 (stereo not drawn) [Compound 3]	15.8	14.3 ± 2.63	36 ± 13	partial agonists or allosteric agonists functioning as partial agonists	–	–	–	–	–	–	–	–	–	limited toxicity	significantly decrease col1a1 levels
O=C1NCCCCC1Sc1nc2sc3c(c2c(=O)n1C1CCCC1)CCCC3 (stereo not drawn) [Compound 5]	6.11	17.7 ± 3.45	63 ± 14	partial agonists or allosteric agonists functioning as partial agonists	~3.36	–	–	–	–	–	–	–	–	limited toxicity	–
